Data reported in patent US10219516B2, “Molecules having pesticidal utility, and intermediates, compositions, and processes, related thereto” (priority 2015, dated 2019).
Read-outs that look alike come from different tables or passages of the source.

Columns and labels:
Format in all cases: in vivo
[1] = system: Beet Armyworm (Spodoptera exigua, LAPHEG); experiment: Bioassay on Beet Armyworm (BAW), 128-well diet tray assay
In short: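 Artificial diet surface-treated with 50 μg/cm^2 test molecule in 90:10 acetone-water, dried, then infested with one to five second instar larvae per well. Held covered and vented at 25° C., 14:10 light-dark for five to seven days; percent mortality recorded per well and averaged over eight wells.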

[2] = system: Cabbage Looper (Trichoplusia ni, TRIPNI); experiment: Bioassay on Cabbage Looper (CL), 128-well diet tray assay; details: Trichoplusia ni
In short: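 Percent mortality, averaged across eight replicate wells, was scored after five to seven days at 25° C. under a 14:10 light-dark cycle. Each well held one to five second instar larvae on artificial diet treated at 50 μg/cm^2 with compound from 90:10 acetone-water, allowed to dry before infestation.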

[3] = system: Green Peach Aphid (Myzus persicae, MYZUPE); experiment: Bioassay on Green Peach Aphid (GPA), foliar spray on infested cabbage seedlings; details: 72 h
In short: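 Cabbage seedlings (2-3 true leaves) infested with 20-50 wingless adult and nymph aphids one day before treatment; sprayed to runoff at 200 ppm in 0.025% Tween 20 water with 20% acetone/methanol, four pots per treatment. Held three days at about 25° C; live aphids counted, % control by Abbott's correction versus solvent check.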

[4] = system: Yellow Fever Mosquito (Aedes aegypti, AEDSAE); experiment: Bioassay on Yellow Fever Mosquito (YFM), 96-well plate larval assay; details: for YFM rating: Yellow Fever Mosquito, 96-well plate larval assay; for YFM (Biological Results, rating): Species YFM (Yellow Fever Mosquito)
In short: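 Each well was scored for mortality after 3 days at room temperature under a non-evaporative lid. Test molecules came from DMSO masters (4000 ppm stock) diluted with water/acetone 90:10 and dispensed into six replicate plates, which were then infested with roughly 1-day-old larvae in liver-powder water.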

[5] = Beet Armyworm, 128-well diet tray assay, read-out: BAW rating
[6] = Cabbage Looper, 128-well diet tray assay, read-out: CL rating
[7] = Green Peach Aphid, foliar spray on cabbage seedlings, read-out: GPA rating
[8] = Species BAW (Beet Armyworm), read-out: BAW (Biological Results, rating)
[9] = Species CL (Cabbage Looper), read-out: CL (Biological Results, rating)
[10] = foliar, Species GPA (Green Peach Aphid), read-out: GPA (Biological Results, rating)

Row | SMILES | pest or weed control at 50 µg/cm2 [1, 5] [%] | pest or weed control at 50 µg/cm2 [2, 6] [%] | pest or weed control at 200 µg/mL [3, 7] [%] | YFM rating [4] | pest or weed control at 50 µg/cm2 [1, 8] [%] | pest or weed control at 50 µg/cm2 [2, 9] [%] | pest or weed control at 200 µg/mL [3, 10] [%] | YFM (Biological Results, rating) [4]
1 | O=C(Nc1ccc(F)cc1F)c1cc(NC(=O)[C@H]2[C@H](c3cc(F)cc(Br)c3)C2(Cl)Cl)ccc1Cl (relative stereo) [F423, 5-(trans)-(3-(3-Bromo-5-fluorophenyl)-2,2-dichlorocyclopropane-1-carboxamido)-2-chloro-N-(2,4-difluorophenyl)benzamide] | 50 to 100 | 50 to 100 | 80 to 100 | A (80-100) | – | – | – | –
2 | O=C(Nc1cnc2[nH]ccc2c1)c1cc(NC(=O)[C@H]2[C@H](c3cc(Cl)cc(Cl)c3)C2(Cl)Cl)ccc1Cl (relative stereo) [F481, 2-Chloro-5-(trans)-(2,2-dichloro-3-(3,5-dichlorophenyl)cyclopropane-1-carboxamido)-N-(1H-pyrrolo[2,3-b]pyridin-5-yl)benzamide] | 50 to 100 | 50 to 100 | 0 to 80 | A (80-100) | – | – | – | –
3 | O=C(Nc1ccc(F)cc1)c1cc(NC(=O)[C@H]2[C@H](c3ccc(F)c(Cl)c3)C2(Cl)Cl)ccc1Cl (relative stereo) [PF4, trans-2-Chloro-5-(2,2-dichloro-3-(3-chloro-4-fluorophenyl)cyclopropane-1-carboxamido)-N-(4-fluorophenyl)benzamide] | 50 to 100 | 50 to 100 | 80 to 100 | B (More than 0-Less than 80) | – | – | – | –
4 | CN(C(=O)c1cc(NC(=O)[C@H]2[C@H](c3ccc(F)c(Cl)c3)C2(Cl)Cl)ccc1Cl)c1ccc(F)cc1 (relative stereo) [PF5, trans-2-Chloro-5-(2,2-dichloro-3-(3-chloro-4-fluorophenyl)cyclopropane-1-carboxamido)-N-(4-fluorophenyl)-N-methylbenzamide] | 50 to 100 | 50 to 100 | 80 to 100 | A (80-100) | – | – | – | –
5 | COCC(=O)N(C)c1ccc(NC(=O)c2cc(NC(=O)[C@H]3[C@H](c4cc(Cl)cc(Cl)c4)C3(Cl)Cl)ccc2Cl)cc1 (relative stereo) [PF31, trans-2-Chloro-5-(2,2-dichloro-3-(3,5-dichlorophenyl)cyclopropane-1-carboxamido)-N-(4-(2-methoxy-N-methylacetamido)phenyl)benzamide] | 50 to 100 | 50 to 100 | 0 to 80 | B (More than 0-Less than 80) | – | – | – | –
6 | CN(C(=O)c1cc(NC(=O)[C@H]2[C@H](c3ccc(Cl)c(F)c3)C2(Cl)Cl)ccc1Cl)c1ccc(F)cc1 (relative stereo) [PF35, trans-2-Chloro-5-(2,2-dichloro-3-(4-chloro-3-fluorophenyl)cyclopropane-1-carboxamido)-N-(4-fluorophenyl)-N-methylbenzamide] | 50 to 100 | 50 to 100 | 80 to 100 | A (80-100) | – | – | – | –
7 | CN(C(=O)c1cc(NC(=O)[C@H]2[C@H](c3cc(Cl)cc(Br)c3)C2(Cl)Cl)ccc1Cl)c1ccc(F)cc1 (relative stereo) [PF38, trans-5-(3-(3-Bromo-5-chlorophenyl)-2,2-dichlorocyclopropane-1-carboxamido)-2-chloro-N-(4-fluorophenyl)-N-methylbenzamide] | 50 to 100 | 50 to 100 | 80 to 100 | A (80-100) | – | – | – | –
8 | N#Cc1cc(F)ccc1NC(=O)c1cc(NC(=O)[C@H]2[C@H](c3cc(Cl)cc(Cl)c3)C2(Cl)Cl)ccc1Cl (relative stereo) [PF67, trans-2-Chloro-N-(2-cyano-4-fluorophenyl)-5-(2,2-dichloro-3-(3,5-dichlorophenyl)cyclopropane-1-carboxamido)benzamide] | 50 to 100 | 50 to 100 | 80 to 100 | B (More than 0-Less than 80) | – | – | – | –
9 | O=C(Nc1ccc(F)cc1C(F)(F)F)c1cc(NC(=O)[C@H]2[C@H](c3cc(Cl)cc(Cl)c3)C2(Cl)Cl)ccc1Cl (relative stereo) [PF69, trans-2-chloro-5-(2,2-dichloro-3-(3,5-dichlorophenyl)cyclopropane-1-carboxamido)-N-(4-fluoro-2-(trifluoromethyl)phenyl)benzamide] | 50 to 100 | 50 to 100 | 80 to 100 | B (More than 0-Less than 80) | – | – | – | –
10 | O=C(Nc1cccc(C(F)(F)F)c1)c1cc(NC(=O)[C@H]2[C@H](c3cc(Cl)cc(Cl)c3)C2(Cl)Cl)ccc1Cl (relative stereo) [PF71, trans-2-Chloro-5-(2,2-dichloro-3-(3,5-dichlorophenyl)cyclopropane-1-carboxamido)-N-(3-(trifluoromethyl)phenyl)benzamide] | 50 to 100 | 50 to 100 | 0 to 80 | A (80-100) | – | – | – | –
11 | O=C(Nc1cccc([N+](=O)[O-])c1)c1cc(NC(=O)[C@H]2[C@H](c3cc(Cl)cc(Cl)c3)C2(Cl)Cl)ccc1Cl (relative stereo) [PF73, trans-2-Chloro-5-(2,2-dichloro-3-(3,5-dichlorophenyl)cyclopropane-1-carboxamido)-N-(3-nitrophenyl)benzamide] | 50 to 100 | 50 to 100 | 80 to 100 | B (More than 0-Less than 80) | – | – | – | –
12 | O=C(Nc1ccsc1)c1cc(NC(=O)[C@H]2[C@H](c3cc(Cl)cc(Cl)c3)C2(Cl)Cl)ccc1Cl (relative stereo) [PF152, trans-2-Chloro-5-(2,2-dichloro-3-(3,5-dichlorophenyl)cyclopropane-1-carboxamido)-N-(thiophen-3-yl)benzamide] | 50 to 100 | 50 to 100 | 0 to 80 | B (More than 0-Less than 80) | – | – | – | –
13 | O=C(Nc1ccc(F)cc1)c1cc(NC(=O)[C@H]2[C@H](c3cc(Cl)cc(Cl)c3)C2(Cl)Cl)ccc1Cl [F165, 2-Chloro-5-((1R,3R)-2,2-dichloro-3-(3,5-dichlorophenyl)cyclopropane-1-carboxamido)-N-(4-fluorophenyl)benzamide] | – | – | – | – | 50 to 100 | 50 to 100 | 80 to 100 | B (More than 0-Less than 80)
14 | O=C(Nc1ccc(F)cc1)c1cc(NC(=O)[C@H]2[C@H](c3cc(Cl)c(Cl)c(Cl)c3)C2(Cl)Cl)ccc1Cl [F279, 2-Chloro-5-((1R,3R)-2,2-dichloro-3-(3,4,5-trichlorophenyl)cyclopropane-1-carboxamido)-N-(4-fluorophenyl)benzamide] | – | – | – | – | 50 to 100 | 50 to 100 | 80 to 100 | A (80-100)
15 | O=C(Nc1ccc(F)cc1)c1cc(NC(=O)[C@@H]2[C@@H](c3cc(Cl)c(Cl)c(Cl)c3)C2(Cl)Cl)ccc1Cl [F280, 2-Chloro-5-((1S,3S)-2,2-dichloro-3-(3,4,5-trichlorophenyl)cyclopropane-1-carboxamido)-N-(4-fluorophenyl)benzamide] | – | – | – | – | 50 to 100 | 50 to 100 | 0 to 80 | A (80-100)
16 | C#CCN(C(=O)c1cc(NC(=O)[C@H]2[C@H](c3ccc(F)c(Cl)c3)C2(Cl)Cl)ccc1Cl)c1ccc(F)cc1F [F414, 2-Chloro-5-((1R,3R)-2,2-dichloro-3-(3-chloro-4-fluorophenyl)cyclopropane-1-carboxamido)-N-(2,4-difluorophenyl)-N-(prop-2-yn-1-yl)benzamide] | 50 to 100 | 50 to 100 | 80 to 100 | A (80-100) | – | – | – | –
17 | O=C(Nc1ccc2ncsc2c1)c1cc(NC(=O)C2C(c3cc(Cl)cc(Cl)c3)C2(Cl)Cl)ccc1Cl (stereo not drawn) [F434, N-(Benzo[d]thiazol-6-yl)-2-chloro-5-(trans)-2,2-dichloro-3-(3,5-dichlorophenyl)cyclopropane-1-carboxamido)benzamide] | 50 to 100 | 50 to 100 | 0 to 80 | A (80-100) | – | – | – | –
18 | O=C(Nc1ccc2nc(Cl)[nH]c2c1)c1cc(NC(=O)C2C(c3cc(Cl)cc(Cl)c3)C2(Cl)Cl)ccc1Cl (stereo not drawn) [F438, 2-Chloro-N-(2-chloro-1H-benzo[d]imidazol-6-yl)-5-(trans)-2,2-dichloro-3-(3,5-dichlorophenyl)cyclopropane-1-carboxamido)benzamide] | 50 to 100 | 50 to 100 | 0 to 80 | B (More than 0-Less than 80) | – | – | – | –
19 | O=C(Nc1ccc(F)cc1F)c1cc(NC(=O)[C@H]2[C@H](c3ccc(F)c(Cl)c3)C2(Cl)Cl)ccc1Cl [F533] | 50 to 100 | 50 to 100 | 80 to 100 | A (80-100) | – | – | – | –
